The values that follow come from publication PMC6934184, “Selective DNA-PKcs inhibition extends the therapeutic index of localized radiotherapy and chemotherapy” (The Journal of Clinical Investigation, 2019).

The assay concerns the target T1, RIPK2 (Homo sapiens, UniProt O43353).
T1 construct: purchased Thermo Fisher Scientific (Life Technologies) SelectScreen
The assay is described as follows: SelectScreen LanthaScreen. Format: binding. The conditions noted are these: read-out: % displacement. On the procedure: The in vitro kinase selectivity of NU5455 was determined using the SelectScreen Broad Assay Panel (Thermo Fisher Scientific) involving activity and binding assays (Supplemental Table 1). […] Class IA PI3Ks were measured using the p85α subunit.
Kinase [ATP] % Assay Kinase [ATP] % Assay Kinase [ATP] % Assay Kinase [ATP] % Assay […]
MAPK11 (p38 beta) Km app 9.5 Z RIPK2 n/a 3.1 L AKT2 (PKB beta) Km app 0.0 Z PRKCE (PKC epsilon) Km app -4.9 Z […]
SGK (SGK1) Km app 8.5 Z MAP4K2 (GCK) Km app 2.7 Z TLK2 n/a -0.3 L STK38 (NDR) n/a -5.9 L
MERTK (cMER) Km app 8.3 Z CDK2/cyclin A Km app 2.7 Z TGFBR1 (ALK5) n/a -0.4 L MATK (HYL) Km app -6.3 Z
FYN Km app 8.3 Z EPHA1 Km app 2.7 Z CLK3 Km app -0.5 Z ABL1 E255K Km app -6.6 Z
TEC n/a 8.1 L CDK2/cyclin E1 n/a 2.7 L MAP3K14 (NIK) n/a -0.5 L STK17A (DRAK1) n/a -6.6 L
KIT V654A n/a 8.1 L TESK2 n/a 2.7 L AKT3 (PKB gamma) Km app -0.5 Z JAK2 JH1 JH2 Km app -6.7 Z
ROS1 Km app 8.0 Z SPHK1 Km app 2.7 A MAP3K9 (MLK1) Km app -0.5 Z PRKACB (PRKAC beta) n/a -6.8 L
FGFR3 K650E Km app 7.9 Z AMPK A2/B1/G1 Km app 2.6 Z IKBKB (IKK beta) Km app -0.6 Z PDGFRA (PDGFR alpha) Km app -6.8 Z
RAF1 (cRAF) Y340D Y341D 100 7.9 Z DYRK3 Km app 2.6 Z CAMK2A (CaMKII alpha) Km app -0.6 Z NEK9 Km app -7.2 Z
PI4KA (PI4K alpha) 10 7.8 A CSNK1D (CK1 delta) Km app 2.6 Z PRKCB1 (PKC beta I) Km app -0.7 Z PDK1 Km app -7.3 Z […]
In general terms: In TR-FRET formats the signal depends on donor and acceptor labels being close together.

T1 sequence (O43353 whole entry): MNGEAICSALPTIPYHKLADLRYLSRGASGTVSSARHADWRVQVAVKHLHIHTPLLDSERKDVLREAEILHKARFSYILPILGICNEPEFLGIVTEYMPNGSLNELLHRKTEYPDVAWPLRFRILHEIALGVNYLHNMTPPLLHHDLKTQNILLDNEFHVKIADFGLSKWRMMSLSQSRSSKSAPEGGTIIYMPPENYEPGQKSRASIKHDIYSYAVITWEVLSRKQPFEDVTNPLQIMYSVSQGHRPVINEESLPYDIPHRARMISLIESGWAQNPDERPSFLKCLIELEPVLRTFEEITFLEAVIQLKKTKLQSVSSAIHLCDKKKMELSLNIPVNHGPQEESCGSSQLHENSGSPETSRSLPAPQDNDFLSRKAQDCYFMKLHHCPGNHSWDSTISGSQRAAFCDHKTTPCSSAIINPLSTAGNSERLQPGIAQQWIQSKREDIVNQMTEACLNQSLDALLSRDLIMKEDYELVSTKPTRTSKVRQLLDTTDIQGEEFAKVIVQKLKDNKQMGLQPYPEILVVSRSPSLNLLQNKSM

Regarding `CN(C(=O)CN1CCOCC1)c1ccc2sc3c(-c4cccc5c(=O)cc(N6CC7CCC(C6)O7)oc45)cccc3c2c1` [NU5455], the inhibition at 1 µM is 3.1%.
